Reference: paper PMC5342692, “Hyperosmotic treatment synergistically boost efficiency of cell-permeable peptides” (Oncotarget, 2016)
Where two headings read alike, the source gives them in different places. No end group written: not given here.

What was measured:
Caski cells [1] = experiment: Fluorescent quantitation of FITC-labeled peptide uptake; assay type: cell-based, human; settings: for intracellular fluorescence intensity of FITC-labeled CPPs with GSM combination: Caski cells co-incubated with glucose, sucrose and manntiol, fluorescence quantitation (Figure 6A)
Protocol: Before the 10 μM FITC-labeled peptides addition, cells were washed with phosphate-buffered saline (0.1 M PBS, pH 7.4) for 3 times. After internalization for 1 h at 37°C, cells were washed 3 times with PBS, and then observed under fluorescence microscope (Nikon, Japan) using a bandpass filter (detects FITC). In some experiments, cell was pretreated with 5% (v/v %) of DMSO in serum-free medium.
Intracellular fluorescence intensity of cells can be quantified using quantitative analysis by Multimode Spectrophotometry (Tecan 2000, Mannedorf, Switzerland). Briefly, after peptide incubation procedure shown above, cells were washed 3 times with PBS, lysed by 0.1 M NaOH at room temperature, and then centrifuged at 14000 g for 5 min. […] The fluorescence of cellular uptake is expressed as fluorescence intensity per mg of total cellular protein (protein concentration were determined using Bradford protein assay). All experiments were repeated at least three times and always performed in triplicate.

Caski cells [2] = experiment: MTT cell viability analysis; settings: glycerol (30 mM) and glycine (15 mM) together
Protocol: MTT assay was used to assess cell viability. Briefly, cells (4 × 10^4 cells) were seeded in one well of 96-well plates and cultivated in an RPMI-1640 medium for 24 h. Cells were washed with PBS and then adding different concentrations of supplements with a serum-free medium, incubated for 2 h at 37°C and washed with PBS twice, then incubated with fresh medium containing serum for 24 h. Then, 20 μl of MTT (5.5 mg/ml) in serum-free media was added directly to each well and incubated for 4 h at 37°C. Removing the supernatant and then adding 100 μl of DMSO, and incubated at 37°C for another 30 min before quantifying the absorbance at 550 nm.

Caski cells [3] = system: Caski cells
Protocol: (§1) HeLa, Siha, Caski, HepG2, A549 or B16 cells (density: 5 × 10^5 cells per well) were seeded into 24-well-plates (Greiner, Germany) and cultivated in RPMI-1640 medium for 24 h. Before the 10 μM FITC-labeled peptides addition, cells were washed with phosphate-buffered saline (0.1 M PBS, pH 7.4) for 3 times. After internalization for 1 h at 37°C, cells were washed 3 times with PBS, and then observed under fluorescence microscope (Nikon, Japan) using a bandpass filter (detects FITC). In some experiments, cell was pretreated with 5% (v/v %) of DMSO in serum-free medium.

A549 and Siha cells = assay type: cell-based, human
Protocol: as §1

HepG2 cells = experiment: Fluorescent quantitation of FITC-labeled peptide uptake; settings: HepG2 cells co-incubated with glucose, sucrose and manntiol; fluorescence quantitation (Figure 6B)
Protocol: as §1
Intracellular fluorescence intensity of cells can be quantified using quantitative analysis by Multimode Spectrophotometry (Tecan 2000, Mannedorf, Switzerland). Briefly, after peptide incubation procedure shown above, cells were washed 3 times with PBS, lysed by 0.1 M NaOH at room temperature, and then centrifuged at 14000 g for 5 min. The fluorescence intensity of the supernatant was measured at the wavelength of 494/518 nm in a Multimode Microplate Reader. The fluorescence of cellular uptake is expressed as fluorescence intensity per mg of total cellular protein (protein concentration were determined using Bradford protein assay). All experiments were repeated at least three times and always performed in triplicate.

[4] = glycerol and glycine combination or separately, fluorescence quantitation (Figure 4D)

For “KIPLPRFKLKCIFCKKRRKR [hPP10, newly found human-derived CPP labeled with FITC]”, the “intracellular fluorescence intensity of FITC-labeled CPPs with GSM combination” value (“intracellular fluorescence intensity” below) (Caski cells [1]) was “facilitate the penetration efficiency”.
For `NCC(=O)O` [glycine], the “cell viability (MTT) with glycerol and glycine addition during GSM treatment” value (“cell viability (MTT)” below) (Caski cells [2]; at 24 h (Figure 4A)) was “rescue the cell viability”, the “cell viability (MTT)” value (Caski cells [2]; at 48 h (Figure 4B)) was “rescue the cell viability” and the “cell viability (MTT)” value (Caski cells [2]; at 72 h (Figure 4C)) was “rescue the cell viability”. The “penetration enhancing activity on TAT-FITC” value (Caski cells [1]) was “no significant penetration enhancing activity”.
For YGRKKRRQRRRK [TAT-FITC], the “TAT penetration efficiency with galactose treatment” value (Caski cells [3]) was “partially enhance the penetration efficiency”, the “enhancement of TAT-FITC penetration by chloroquine” value (Caski cells [3]) was “limited” and the “TAT uptake with glucose and manntiol in different cell lines” value (A549 and Siha cells) was “enhance the penetration of TAT uptake”. The “TAT penetration efficiency at different temperatures” value (Caski cells [1]; 4 and 37°C, GSM combination (Figure 7B)) was “decreased at lower temperatures”, the “TAT penetration with GSM combination, effect of washing method” value (Caski cells [1]; PBS washing vs 0.025% trypsin washing (Supplementary Figure S3)) was “no difference between PBS washing and 0.025% trypsin washing method” and the “TAT-FITC uptake with glucose and manntiol combination” value (Caski cells [1]; co-incubated with glucose and manntiol (100 to 300 mM) 1 h, then TAT-FITC 1 h at 37°C, fluorescence quantitation (Figure 3B)) was “improved”. For the same molecule, the “TAT-FITC uptake with glucose and sucrose combination” value (Caski cells [1]; co-incubated with glucose and sucrose (100 to 300 mM) 1 h, then TAT-FITC 1 h at 37°C, fluorescence quantitation (Figure 3A)) was “improved”, the “TAT-FITC uptake with GSM combination” value (Caski cells [1]; co-incubated with glucose, sucrose and manntiol (50 to 300 mM) 1 h, then TAT-FITC 1 h at 37°C, fluorescence quantitation (Figure 3D)) was “increasing as the concentration gradient” and the “TAT-FITC uptake with sucrose and manntiol combination” value (Caski cells [1]; co-incubated with sucrose and manntiol (100 to 300 mM) 1 h, then TAT-FITC 1 h at 37°C, fluorescence quantitation (Figure 3C)) was “improved”. For the same molecule, the “TAT penetration enhancement, dose ranging” value (Caski cells [1]; glucose, sucrose, manntiol from 200 to 600 mM, lysate fluorescence 494/518 nm per mg protein (Figure 2B)) was “dependent on the concentration of glucose, sucrose and manntiol”, the “TAT-FITC penetration efficiency in the presence of glycerol and glycine” value (Caski cells [1]; [4]) was “not observed” and the “intracellular delivery efficiency of TAT-FITC with NH4Cl” value (Caski cells [1]; lysosomotrophic neutralizing agent NH4Cl, in the presence of GSM combination (Figure 7D)) was “significantly decreased”. The “intracellular delivery efficiency of TAT-FITC with NaN3” value (Caski cells [1]; metabolic inhibitor NaN3, in the presence of GSM combination (Figure 7C)) was “significantly decreased” and the “TAT penetration efficiency with serum” value (Caski cells [1]; with vs without 10% fetal bovine serum (FBS), GSM combination (Figure 7A)) was “remains decreased”.
In the case of RKDRRGGEMMKQKRQRE [NLS], the “intracellular fluorescence intensity” value (HepG2 cells) is reported as “facilitate the penetration efficiency” and the “intracellular fluorescence intensity” value (Caski cells [1]) is reported as “facilitate the penetration efficiency”.
For `OCC(O)CO` [glycerol], the “penetration enhancing activity on TAT-FITC” value (Caski cells [1]; [4]) was “no significant penetration enhancing activity”.
